# Experimental data from ChEMBL document CHEMBL1255302, “Genetic structures at the origin of acquisition of the beta-lactamase bla KPC gene” (2008).
# Assays:
# Assay type in all cases: functional
# Escherichia coli [1] = assay: Antibacterial activity against Escherichia coli harboring pBC633 plasmid expressing blaKPC gene by Etest method in presence of beta-lactamase inhibitor clavulanic acid
# Klebsiella pneumoniae [2] = assay: Antibacterial activity against Klebsiella pneumoniae YC by Etest method
# Klebsiella pneumoniae [3] = assay: Antibacterial activity against Klebsiella pneumoniae GR by Etest method
# Escherichia coli [4] = assay: Antibacterial activity against Escherichia coli DH10B expressing blaKPC gene by Etest method in presence of beta-lactamase inhibitor clavulanic acid
# Pseudomonas aeruginosa [5] = assay: Antibacterial activity against Pseudomonas aeruginosa KG2505 by Etest method in presence of beta-lactamase inhibitor clavulanic acid
# Escherichia coli [6] = assay: Antibacterial activity against Escherichia coli harboring pBC2303 expressing blaKPC gene plasmid by Etest method
# Klebsiella pneumoniae [7] = assay: Antibacterial activity against Klebsiella pneumoniae 633 by Etest method
# Pseudomonas aeruginosa [8] = assay: Antibacterial activity against Pseudomonas aeruginosa KG2505 by Etest method
# Klebsiella pneumoniae [9] = assay: Antibacterial activity against Klebsiella pneumoniae KN2303 by Etest method in presence of beta-lactamase inhibitor clavulanic acid
# Escherichia coli [10] = assay: Antibacterial activity against Escherichia coli harboring pCOL plasmid expressing blaKPC gene by Etest method
# Klebsiella pneumoniae [11] = assay: Antibacterial activity against Klebsiella pneumoniae 633 by Etest method in presence of beta-lactamase inhibitor clavulanic acid
# Klebsiella pneumoniae [12] = assay: Antibacterial activity against Klebsiella pneumoniae YC by Etest method in presence of beta-lactamase inhibitor clavulanic acid
# Escherichia coli [13] = assay: Antibacterial activity against Escherichia coli harboring pBC633 plasmid expressing blaKPC gene by Etest method
# Klebsiella pneumoniae [14] = assay: Antibacterial activity against Klebsiella pneumoniae GR by Etest method in presence of beta-lactamase inhibitor clavulanic acid
# Klebsiella pneumoniae [15] = assay: Antibacterial activity against Klebsiella pneumoniae KN2303 by Etest method
# Escherichia coli [16] = assay: Antibacterial activity against Escherichia coli harboring pRYC plasmid expressing blaKPC gene by Etest method in presence of beta-lactamase inhibitor clavulanic acid
# Pseudomonas aeruginosa [17] = assay: Antibacterial activity against Pseudomonas aeruginosa KG2505 harboring pCOL plasmid by Etest method
# Escherichia coli [18] = assay: Antibacterial activity against Escherichia coli DH10B expressing blaKPC gene by Etest method
# Pseudomonas aeruginosa [19] = assay: Antibacterial activity against Pseudomonas aeruginosa KG2505 harboring pCOL plasmid by Etest method in presence of beta-lactamase inhibitor clavulanic acid
# Escherichia coli [20] = assay: Antibacterial activity against Escherichia coli harboring pRYC plasmid expressing blaKPC gene by Etest method
# Escherichia coli [21] = assay: Antibacterial activity against Escherichia coli harboring pNYC plasmid expressing blaKPC gene by Etest method
# Pseudomonas aeruginosa [22] = assay: Antibacterial activity against Pseudomonas aeruginosa 2404 plasmid by Etest method in presence of beta-lactamase inhibitor clavulanic acid
# Escherichia coli [23] = assay: Antibacterial activity against Escherichia coli harboring pNYC plasmid expressing blaKPC gene by Etest method in presence of beta-lactamase inhibitor clavulanic acid
# Escherichia coli [24] = assay: Antibacterial activity against Escherichia coli harboring pNGR plasmid expressing blaKPC gene by Etest method
# Escherichia coli [25] = assay: Antibacterial activity against Escherichia coli harboring pBC2303 expressing blaKPC gene plasmid by Etest method in presence of beta-lactamase inhibitor clavulanic acid
# Pseudomonas aeruginosa [26] = assay: Antibacterial activity against Pseudomonas aeruginosa 2404 plasmid by Etest method
# Escherichia coli [27] = assay: Antibacterial activity against Escherichia coli harboring pNGR plasmid expressing blaKPC gene by Etest method in presence of beta-lactamase inhibitor clavulanic acid
# Escherichia coli [28] = assay: Antibacterial activity against Escherichia coli harboring pCOL plasmid expressing blaKPC gene by Etest method in presence of beta-lactamase inhibitor clavulanic acid
Structure (SMILES),MIC (Escherichia coli [1]) [µg/mL],MIC (Klebsiella pneumoniae [2]) [µg/mL],MIC (Klebsiella pneumoniae [3]) [µg/mL],MIC (Escherichia coli [4]) [µg/mL],MIC (Pseudomonas aeruginosa [5]) [µg/mL],MIC (Escherichia coli [6]) [µg/mL],MIC (Klebsiella pneumoniae [7]) [µg/mL],MIC (Pseudomonas aeruginosa [8]) [µg/mL],MIC (Klebsiella pneumoniae [9]) [µg/mL],MIC (Escherichia coli [10]) [µg/mL],MIC (Klebsiella pneumoniae [11]) [µg/mL],MIC (Klebsiella pneumoniae [12]) [µg/mL],MIC (Escherichia coli [13]) [µg/mL],MIC (Klebsiella pneumoniae [15]) [µg/mL],MIC (Pseudomonas aeruginosa [17]) [µg/mL],MIC (Escherichia coli [18]) [µg/mL],MIC (Escherichia coli [20]) [µg/mL],MIC (Escherichia coli [21]) [µg/mL],MIC (Escherichia coli [24]) [µg/mL],MIC (Pseudomonas aeruginosa [26]) [µg/mL],other results
C[C@@H](O)[C@H]1C(=O)N2C(C(=O)O)=C(S[C@@H]3CN[C@H](C(=O)Nc4cccc(C(=O)O)c4)C3)[C@H](C)[C@H]12,0.19,24,12,0.05,0.03,0.25,> 32,0.25,> 32,0.004,8,2,2,> 32,> 32,0.25,4,0.5,0.38,> 32,MIC (Klebsiella pneumoniae [14]): 6 µg/mL; MIC (Escherichia coli [16]): 1.5 µg/mL; MIC (Pseudomonas aeruginosa [19]): 2 µg/mL; MIC (Pseudomonas aeruginosa [22]): > 32 µg/mL; MIC (Escherichia coli [23]): 0.05 µg/mL; MIC (Escherichia coli [25]): 0.02 µg/mL; MIC (Escherichia coli [27]): 0.01 µg/mL; MIC (Escherichia coli [28]): 0.002 µg/mL
CO/N=C(\C(=O)N[C@@H]1C(=O)N2C(C(=O)[O-])=C(C[N+]3(C)CCCC3)CS[C@H]12)c1csc(N)n1,–,–,> 32,–,–,3,> 32,0.5,–,0.02,–,–,4,> 32,> 32,1,> 32,1,1.5,> 32,–
CC1(C)S[C@@H]2[C@H](NC(=O)[C@H](N)c3ccc(O)cc3)C(=O)N2[C@H]1C(=O)O [AMOXICILLIN],32,> 256,> 256,24,0.25,> 256,> 256,0.25,> 256,2,32,32,> 256,> 256,> 256,> 256,> 256,> 256,> 256,> 256,MIC (Klebsiella pneumoniae [14]): 48 µg/mL; MIC (Escherichia coli [16]): 64 µg/mL; MIC (Pseudomonas aeruginosa [19]): > 256 µg/mL; MIC (Pseudomonas aeruginosa [22]): > 256 µg/mL; MIC (Escherichia coli [23]): 32 µg/mL; MIC (Escherichia coli [25]): 24 µg/mL; MIC (Escherichia coli [27]): 24 µg/mL; MIC (Escherichia coli [28]): 2 µg/mL
C[C@H]1[C@H](NC(=O)/C(=N\OC(C)(C)C(=O)O)c2csc(N)n2)C(=O)N1S(=O)(=O)O [AZTREONAM],–,–,–,–,–,192,–,–,–,–,–,–,–,–,–,24,–,16,16,–,–
CO/N=C(\C(=O)N[C@@H]1C(=O)N2C(C(=O)O)=C(COC(C)=O)CS[C@H]12)c1csc(N)n1 [CEFOTAXIME],3,> 32,> 32,0.25,0.19,16,> 32,0.25,> 32,0.05,> 32,16,32,> 32,> 32,3,> 32,4,4,> 32,MIC (Klebsiella pneumoniae [14]): 32 µg/mL; MIC (Escherichia coli [16]): > 32 µg/mL; MIC (Pseudomonas aeruginosa [19]): > 32 µg/mL; MIC (Pseudomonas aeruginosa [22]): > 32 µg/mL; MIC (Escherichia coli [23]): 2 µg/mL; MIC (Escherichia coli [25]): 0.38 µg/mL; MIC (Escherichia coli [27]): 0.38 µg/mL; MIC (Escherichia coli [28]): 0.01 µg/mL
CO[C@@]1(NC(=O)Cc2cccs2)C(=O)N2C(C(=O)O)=C(COC(N)=O)CS[C@@H]21 [CEFOXITIN],–,> 32,> 32,–,–,8,> 32,0.25,–,2,–,–,> 32,> 32,> 32,2,> 32,2,4,> 64,–
CC(C)(O/N=C(\C(=O)N[C@@H]1C(=O)N2C(C(=O)[O-])=C(C[n+]3ccccc3)CS[C@H]12)c1csc(N)n1)C(=O)O [CEFTAZIDIME],–,64,> 256,–,–,256,> 256,1,–,0.19,–,–,32,> 256,> 256,8,> 256,4,4,> 256,–
CC(=O)OCC1=C(C(=O)O)N2C(=O)[C@@H](NC(=O)Cc3cccs3)[C@H]2SC1 [CEPHALOTHIN],–,> 256,> 256,–,–,> 256,> 256,2,–,2,–,–,> 256,> 256,> 256,256,> 256,> 256,> 256,> 256,–
C[C@@H](O)[C@H]1C(=O)N2C(C(=O)O)=C(SCCNC=N)C[C@H]12 [IMIPENEM ANHYDROUS],0.75,4,12,0.38,0.19,1,> 32,0.19,> 32,0.19,0.75,2,6,> 32,> 32,1.5,12,8,1.5,> 32,MIC (Klebsiella pneumoniae [14]): 0.75 µg/mL; MIC (Escherichia coli [16]): 3 µg/mL; MIC (Pseudomonas aeruginosa [19]): 2 µg/mL; MIC (Pseudomonas aeruginosa [22]): > 32 µg/mL; MIC (Escherichia coli [23]): 2 µg/mL; MIC (Escherichia coli [28]): 0.1 µg/mL
C[C@@H](O)[C@H]1C(=O)N2C(C(=O)O)=C(S[C@@H]3CN[C@H](C(=O)N(C)C)C3)[C@H](C)[C@H]12 [MEROPENEM],0.38,2,6,0.1,0.01,0.38,4,0.05,> 32,0.01,2,1,2,> 32,> 32,0.38,3,2,0.38,> 32,MIC (Klebsiella pneumoniae [14]): 3 µg/mL; MIC (Escherichia coli [16]): 2 µg/mL; MIC (Pseudomonas aeruginosa [19]): 3 µg/mL; MIC (Pseudomonas aeruginosa [22]): > 32 µg/mL; MIC (Escherichia coli [23]): 0.25 µg/mL; MIC (Escherichia coli [25]): 0.12 µg/mL; MIC (Escherichia coli [27]): 0.01 µg/mL; MIC (Escherichia coli [28]): 0.002 µg/mL
CCN1CCN(C(=O)N[C@@H](C(=O)N[C@@H]2C(=O)N3[C@@H]2SC(C)(C)[C@@H]3C(=O)O)c2ccccc2)C(=O)C1=O [PIPERACILLIN],–,> 256,> 256,–,–,> 256,> 256,0.38,–,1.5,–,–,> 256,> 256,> 256,> 256,> 256,> 256,128,> 256,–
CC1(C)S[C@@H]2[C@H](NC(=O)[C@H](C(=O)O)c3ccsc3)C(=O)N2[C@H]1C(=O)O [TICARCILLIN],> 256,> 256,> 256,> 256,0.25,> 256,> 256,0.38,> 256,2,> 256,> 256,> 256,> 256,> 256,> 256,> 256,> 256,> 256,> 256,MIC (Klebsiella pneumoniae [14]): > 256 µg/mL; MIC (Escherichia coli [16]): > 256 µg/mL; MIC (Pseudomonas aeruginosa [19]): > 256 µg/mL; MIC (Pseudomonas aeruginosa [22]): > 256 µg/mL; MIC (Escherichia coli [23]): > 256 µg/mL; MIC (Escherichia coli [25]): > 256 µg/mL; MIC (Escherichia coli [27]): > 256 µg/mL; MIC (Escherichia coli [28]): 1.5 µg/mL
